Results reported in patent US20210113501A1, “METHOD OF ADMINISTERING BETA-HYDROXY-BETA-METHYLBUTYRATE (HMB)” (Metabolic Technologies, Inc., priority 2009, published 2021).

How the values were obtained:
C2C12 myotubes = settings: cited from earlier work
[1] = Study 2: plasma HMB and urinary HMB excretion over 24 h; type: in vivo, human
Description: Human subjects. In study 1, four male and four female college-aged subjects were studied. In study 2, an additional four male and four female college-aged subjects were studied. The protocols for both studies were approved by the Iowa State University IRB and each subject gave informed consent to participate in the study. Due to the nature of the treatments, neither the subjects nor the researchers could be blinded.
Treatments. The same treatments were given to the subjects in both study groups. The three treatments were given in random order to each subject with at least a one week washout period between treatments. The treatments were supplied by Metabolic Technologies, Inc. (MTI, Ames, Iowa) and were prepared with food grade ingredients. One gram of CaHMB or the equivalent HMB in free acid in a gel form was administered to the subjects. The CaHMB capsules were obtained from a commercial supplement manufacturer (Optimum Nutrition, Aurora, Ill.) while the HMB-acid gel was prepared at MTI laboratories. Briefly, the HMB-acid was adjusted to a pH 4.5 with potassium carbonate (K2CO3) and flavors and sweeteners were then added. The 1.0 g CaHMB capsule was taken with 355 mL of water (approx. 12 oz.). The free acid gel dosage was 0.80 g and was equivalent to the free acid contained in the CaHMB in the capsule. The free acid gel treatments were either swallowed (FASW) or held sublingual for 15 seconds and then swallowed (FASL). FASW consisted of expelling the entire dose into the mouth in a 3 ml syringe, swallowing, and then following this with 355 mL of water. FASL subjects were instructed to place the entire dosage under the tongue and hold the dosage for 15 sec before swallowing. They then rinsed and followed the dose with 355 mL of water.
Study 2 design. Study 2 was conducted similar to study 1 with the following modifications. In study 2, plasma levels of HMB were measured for 1440 min (24 h) and total urine collection was also performed for measurement of urinary HMB excretion during this period. After the 180 min blood sample, the subjects were allowed to leave the laboratory and were instructed to return to the laboratory for additional blood samples at 360, 720, and 1440 min after the ingestion of the supplement. As in study 1, each subject took each of the treatments with at least a one week washout period between treatments. Samples were again stored frozen at −70° C. for analysis of plasma and urinary HMB concentrations. Pre-ingestion, 180 min and 1440 min blood samples were again assayed for the same measurements already for study 1. Subjects were provided with a standardized lunch after the 180 min blood sampling and instructed to eat this at approximately 240 min post ingestion. Following the 720 min blood sample, subjects were instructed to eat a normal evening meal before 10 pm. Subjects reported back to the laboratory the following morning for the fasted 1440 min blood sample. A urine collection container was provided and subjects collected all urine produced during the experimental 24 h experimental period. The urine was stored refrigerated when not being collected. Urine volumes were measured and samples of the total urine collection were taken and stored frozen at −70° C. until analyzed for HMB.
HMB analysis. Plasma and urine HMB were analyzed by gas chromatography/mass spectrometry (GC/MS) as previously described.(27)
Calculations and statistics. Areas under the curves were calculated for each subject using the trapezoidal method that sums the area above baseline.(51) Half-life of plasma HMB was calculated for study 2. The following equations were used:
k=(ln(Cpeak)−ln(Ctrough))/Tinterval
Peak plasma concentrations for each subject were used for Cpeak. […] Tpeak was the time at which Cpeak was measured and Tinterval is the time from Tpeak until the time at Ctrough (720 min). The extracellular fluid compartment was assumed to be 20% of body weight and calculated using equation 3 below(1). […]

muscle damage = test: Serum CPK after an acute eccentric exercise bout; type: in vivo, human; settings: pre- and post exercise dosing (Treatment 5)
Experimental: (§1) Subjects: We conducted a study at the Iowa State University Health and Human Performance Laboratory; this study was approved by the Iowa State University Institutional Review Board, and was registered at ClinicalTrials.gov (NCT01150526). We recruited 12 men and 13 women between the ages of 20 and 36 from the Iowa State University community and surrounding area.
(§2) Treatments: The experimental design is depicted in FIG. 8.
Five treatments were administered as follows: Treatment 1: Placebo. This group received a placebo capsule and a placebo syringe dosage at each dosage administration. Treatment 2: CaHMB pre-exercise. […]
Serum and Urine Samples: A fasting blood sample was taken from a superficial forearm vein each morning when the subjects reported to the laboratory for testing. […] Serum CPK was analyzed by a commercial laboratory (Quest Diagnostics, Madison N.J.). Urine 3-Methylhistidine (3MH) was analyzed by a previously published GC/MS method (9). Urinary creatinine was analyzed by colorimetric assay (Cayman Chemical Company, Ann Arbor, Mich.). The urinary 3MH data was normalized to urinary creatinine and expressed as 3MH:creatinine ratio, μmol:mg.
(§3) Statistics: Data were analyzed using the mixed model procedure in Statistical Analysis System for Windows (Release 9.1.3, SAS Institute, Cary, N.C.). […]

[2] = tested on: protein degradation in muscle; test: Urinary 3-methylhistidine to creatinine ratio after an acute exercise bout; type: in vivo, human
Experimental: as §1, §2
Five treatments were administered as follows: Treatment 1: Placebo. This group received a placebo capsule and a placebo syringe dosage at each dosage administration. Treatment 2: CaHMB pre-exercise. This group received a CaHMB capsule and a placebo syringe dosage 30 min prior to the acute exercise bout. The remaining additional dosages during the study consisted of one placebo capsule and one placebo syringe dosage. Treatment 3: HMB-acid gel pre-exercise. This group received a placebo capsule and a syringe dosage of HMB-acid gel 30 min prior to the acute exercise bout. The remaining additional dosages during the study consisted of one placebo capsule and one placebo syringe dosage. Treatment 4: CaHMB pre- and post-exercise. This group received a CaHMB capsule and a placebo syringe dosage at all administration times during the study. Treatment 5: HMB-acid gel pre- and post-exercise. This group received a syringe dosage of HMB-acid gel and one placebo capsule at all administration times during the study.
To blind the treatments to both the researchers and subjects, each subject took a capsule and syringe dosage of supplement at each administration. The capsules contained either one gram of calcium lactate (Placebo) or one gram of calcium β-hydroxy-β-methylbutryate (CaHMB). The syringe dosages were formulated to be similar in taste and appearance and contained either 0.8 g of corn syrup (Placebo) or 0.8 g of β-hydroxy-β-methylbutryate free acid, the same amount of HMB as in the capsule dosage. The 3 daily doses provided the same total HMB dosage (2.4 g as calcium HMB in the capsules or 2.4 g as HMB free acid in the syringes).
Eccentric Exercise Bout: Subjects refrained from vigorous exercise for three days before reporting to the laboratory. All subjects were studied after an overnight fast. […] Subjects then consumed their assigned supplement and 30 minutes later the eccentric exercise session was performed. The exercise consisted of 50 maximal effort contractions of knee extensors while attempting to resist the Biodex lever arm as it moves the knee joint from full extension to 90 degrees flexion; this is similar to letting a heavy weight down slowly while in a seated position. Each contraction lasted about 2 seconds and 12 seconds were allowed between contractions. This protocol was performed on the right leg followed by the left leg. The subjects received 2 more daily dosages of treatment (placebo or HMB) with instructions to take the dosages at lunch and dinner. For the next 4 days the subjects returned to the laboratory fasted each morning, had blood taken and urine collected and then consumed the morning dosage of their supplement. The subjects were again given the 2 remaining daily supplement dosages with instructions to take them at lunch and dinner.
Serum and Urine Samples: A fasting blood sample was taken from a superficial forearm vein each morning when the subjects reported to the laboratory for testing. Additionally a clean catch urine sample was collected at this time. Serum CPK was analyzed by a commercial laboratory (Quest Diagnostics, Madison N.J.). Urine 3-Methylhistidine (3MH) was analyzed by a previously published GC/MS method (9). Urinary creatinine was analyzed by colorimetric assay (Cayman Chemical Company, Ann Arbor, Mich.). The urinary 3MH data was normalized to urinary creatinine and expressed as 3MH:creatinine ratio, μmol:mg.
as §3

[3] = after HMB is fed; cited from earlier work

In the case of `CC(C)C[C@H](N)C(=O)O` [leucine], the “phosphorylation of S6K1Thr389” value (C2C12 myotubes) is listed as “+17%”.

For `CC(C)(O)CC(=O)O` [HMB-acid gel, β-hydroxy-β-methylbutryate free acid], the “increase in HMB plasma clearance compared with CaHMB” value ([1]; Study 2) was 25%, the “AUC greater than for CaHMB capsules” value ([1]; Study 2, over 24 hours, listed as free acid gel) was “+14.8%” and the “estimated amount of HMB retained greater than CaHMB” value ([1]; based upon plasma clearance) was 25%. For the same molecule, the “peak plasma level earlier than with CaHMB” value ([1]; free acid versus CaHMB) was roughly 90 min, the “plasma level relative to oral CaHMB” value ([1]; peak levels) was roughly 2 fold and the “blunting of the exercise-induced increase in serum CPK” value (muscle damage; 24 h post exercise, P<0.03) was “up to 64%”. The “blunting of the exercise-induced increase in serum CPK” value (muscle damage; 48 h post exercise, P<0.005) was 86%, the “3MH:Cr” value ([2]; Baseline, dosed pre- and post exercise (Treatments 4, 5)) was 0.225 ± 0.034 µmol/mg and the “3MH:Cr” value ([2]; Baseline, dosed pre-exercise only (Treatments 2, 3)) was 0.173 ± 0.028 µmol/mg. The “3MH:Cr” value ([2]; at 24 h, dosed pre- and post exercise (Treatments 4, 5)) was 0.213 ± 0.025 µmol/mg, the “3MH:Cr” value ([2]; at 24 h, dosed pre-exercise only (Treatments 2, 3)) was 0.213 ± 0.037 µmol/mg and the “3MH:Cr” value ([2]; at 48 h, dosed pre- and post exercise (Treatments 4, 5)) was 0.208 ± 0.012 µmol/mg. For the same molecule, the “3MH:Cr” value ([2]; at 48 h, dosed pre-exercise only (Treatments 2, 3)) was 0.190 ± 0.014 µmol/mg, the “3MH:Cr” value ([2]; at 72 h, dosed pre- and post exercise (Treatments 4, 5)) was 0.175 ± 0.013 µmol/mg and the “3MH:Cr” value ([2]; at 72 h, dosed pre-exercise only (Treatments 2, 3)) was 0.172 ± 0.013 µmol/mg. For the same molecule, the “3MH:Cr” value ([2]; at 96 h, dosed pre- and post exercise (Treatments 4, 5)) was 0.186 ± 0.043 µmol/mg, the “3MH:Cr” value ([2]; at 96 h, dosed pre-exercise only (Treatments 2, 3)) was 0.202 ± 0.020 µmol/mg and the “protein degradation (3MH:Cr ratio), trend” value ([2]; pre- and post exercise dosing) was “no increase and even a decrease in protein degradation”.

For `CC(C)(O)CC(=O)O` [HMB, β-Hydroxy-β-methylbutyrate], the “loss of HMB to urine” value [3] is listed as 20-50%, the “phosphorylation of 4EBP1Thr65/70” value (C2C12 myotubes) is listed as “+51%” and the “phosphorylation of AKTSer473” value (C2C12 myotubes) is listed as “+129%”. The “phosphorylation of S6K1Thr389” value (C2C12 myotubes) was “+50%” and the AKT phosphorylation (C2C12 myotubes; incubation with rapamycin) was “+188%”.
